Here are results for five compounds from patent US20220041583A1, “IMMUNOMODULATORS, COMPOSITIONS AND METHODS THERE OF” (BETTA PHARMACEUTICALS CO., LTD, priority 2018, published 2022).

The target of one data set is T1, PD-1/PD-L1 (Homo sapiens, UniProt Q9NZQ7).
T1 construct: Recombinant human PD-L1 protein (19-238) with a His-tag at the C-terminus; purchased AcroBiosystems PD1-H5229 (PD-L1); PD1-H5257 (PD-1)
The data set is described as follows: PD-1/PD-L1 homogenous time-resolved fluorescence (HTRF) binding assay.

The next data set can be described thus: Pharmacokinetic Assay. As to conditions: rat; male rats, single oral (intragastric) dose 25 mg/kg, plasma. It is filed as in vivo. How it is done: Healthy adult male rats were subjected to single-dose of the test compounds with 10% DMSO, 10% Kolliphor® HS 15 and 80% Saline as excipients, and the rats were giving oral administration (intragastric administration) with the compounds at a dose of 25 mg/kg, Before the experiment, the animals were fasted overnight, and the fasting time last from 12 hrs prior to the administration to 4 hrs after the administration. Time of blood collection: 15 min, 30 min, 1 h, 2 h, 4 h, 7 h, 24 h. Approximately 0.3 mL of whole blood was collected from retro-orbital venous sinus, and placed into tubes that contained EDTA as an anticoagulant. The samples were centrifuged at 4° C. and 4000 rpm for 5 min. The plasma was transferred into centrifuge tubes, and stored at −20° C. till being analyzed. Concentrations of test compounds in the plasma samples were analyzed with liquid chromatography-tandem mass spectrometry (LC-MS/MS). Plasma concentration-time data of individual animals was analyzed using WinNonlin (version 4.1; Pharsight) software. Non-compartmental model was introduced in concentration analysis. The pharmacokinetic parameters of the test compounds were calculated.

T1 sequence (Q9NZQ7 19-238): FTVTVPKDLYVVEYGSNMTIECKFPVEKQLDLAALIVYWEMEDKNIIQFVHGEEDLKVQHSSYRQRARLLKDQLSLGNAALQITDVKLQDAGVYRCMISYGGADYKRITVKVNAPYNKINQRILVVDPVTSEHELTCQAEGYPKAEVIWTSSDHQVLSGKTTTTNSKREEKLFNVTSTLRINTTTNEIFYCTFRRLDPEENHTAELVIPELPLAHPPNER

The term IC50 denotes the concentration that inhibits the measured activity by half. For orientation: AUC means the area under the concentration-time curve, a measure of exposure. High values mean more exposure, low ones less exposure. By Cmax is commonly meant the highest concentration seen after dosing. One may read the Tmax as the time at which the peak concentration occurs. In general, half-life refers to the time needed for the level to fall by half in the phase considered. Low readings indicate fast loss, high ones slow loss. `Cc1c(-c2ccccc2)cccc1-c1nc2cc(CN3CCOC[C@H]3C(=O)O)c(OC(F)F)cc2o1` [Example 39, (S)-4-((6-(difluoromethoxy)-2-(2-methyl-[1,1′-biphenyl]-3-yl)benzo[d]oxazol-5-yl)methyl)morpholine-3-carboxylic acid] came in with an IC50 on PD-1/PD-L1 (Table 6, numeric values) of 1.1 nM. In the data set “Pharmacokinetic Assay”, the AUC came out at 121 µg·h/mL, the Cmax stood at 31000 ng/mL, the Tmax amounted to 1 h and the half-life is 10.8 h.

`Cc1c(-c2nc3cc(CN4CCC[C@H]4C(=O)O)c(OC(F)F)cc3o2)cccc1-c1ccccc1F` [Example 52, ((6-(difluoromethoxy)-2-(2′-fluoro-2-methyl-[1,1′-biphenyl]-3-yl)benzo[d]oxazol-5-yl)methyl)-L-proline] came in with an IC50 on PD-1/PD-L1 (Table 6, class symbols) of 10 to 100 nM. In “Pharmacokinetic Assay”, the AUC is 246 µg·h/mL, the Cmax worked out at 20700 ng/mL, the Tmax stood at 2 h and the half-life was 7.72 h.

On PD-1/PD-L1 (Table 6, class symbols), `CSc1cc2oc(-c3cccc(-c4ccccc4)c3C)nc2cc1CN1CCC[C@H]1C(=O)O` [Example 2, ((2-(2-methyl-[1,1′-biphenyl]-3-yl)-6-(methylthio)benzo[d]oxazol-5-yl)methyl)-L-proline] yielded an IC50 of 0.1 to 10 nM. Further, in “Pharmacokinetic Assay”, the AUC stood at 125 µg·h/mL, the Cmax is 12200 ng/mL, the Tmax stood at 1 h and the half-life is 17.7 h.

In turn, `Cc1c(-c2ccccc2)cccc1-c1nc2cc(CN3CCCC[C@H]3C(=O)O)c(OC(F)F)cc2o1` [Example 29, (S)-1-((6-(difluoromethoxy)-2-(2-methyl-[1,1′-biphenyl]-3-yl)benzo[d]oxazol-5-yl)methyl)piperidine-2-carboxylic acid] had an IC50 on PD-1/PD-L1 (Table 6, class symbols) of 0.1 to 10 nM. For the same compound, in “Pharmacokinetic Assay”, the AUC amounted to 201 µg·h/mL, the Cmax was 23300 ng/mL, the Tmax worked out at 1 h and the half-life is 4.27 h.

Turning to `Cc1cc2oc(-c3cccc(-c4ccccc4)c3C)nc2cc1CN1CCCC[C@H]1C(=O)O` [Example 22, (S)-1-((6-methyl-2-(2-methyl-[1,1′-biphenyl]-3-yl)benzo[d]oxazol-5-yl)methyl)piperidine-2-carboxylic acid], the IC50 on PD-1/PD-L1 (Table 6, numeric values) was 1.8 nM. Besides, in “Pharmacokinetic Assay”, the AUC worked out at 151 µg·h/mL, the highest level (Cmax) was 10300 ng/mL, the Tmax came out at 1 h and the half-life is 42.3 h.
